# Assay results from the supplement of paper PMC7244745.
# ± gives the uncertainty stated by the source.
# Assays:
# [1] = test system: Klebsiella pneumoniae ATCC 13882; test: final pH-related absorbance (A557-A630) after 24 h (absorbance units); higher = more ureolysis; extreme values may be limits of the assay
# Protocol: (§1)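 Klebsiella pneumoniae ATCC 13882 (start OD600 0.05) grown in M9U medium with 40 mM urea and phenol red plus inhibitor, in triplicate in 96-well plates. A557 and OD630 were read every 15 min for 24 h. Ureolysis was followed as the pH-related A557-A630: onset time, Gompertz-fit rate and final value. Growth was followed as OD630.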
# [2] = test system: Klebsiella pneumoniae ATCC 13882; test: final OD630 (growth) after 24 h; higher = more bacterial growth; extreme values may be limits of the assay
# Protocol: as §1
# [3] = test system: Klebsiella pneumoniae ATCC 13882; test: rate of pH (A557-A630) increase, Gompertz fit (10^-4 s-1); higher = faster ureolysis; extreme values may be limits of the assay
# Protocol: as §1
# [4] = test system: Klebsiella pneumoniae ATCC 13882; test: onset of ureolytic pH increase; higher = more delayed ureolysis (inhibition)
# Protocol: as §1
SMILES,final pH-related absorbance ([1]; 0.1 mM),final pH-related absorbance ([1]; 1 mM),final pH-related absorbance ([1]; 10 mM),final OD630 ([2]; 0.1 mM),final OD630 ([2]; 1 mM),final OD630 ([2]; 10 mM),rate of pH ([3]; 0.1 mM),rate of pH ([3]; 1 mM),rate of pH ([3]; 10 mM),onset of ureolytic pH increase ([4]; 0.1 mM) [h],onset of ureolytic pH increase ([4]; 1 mM) [h],onset of ureolytic pH increase ([4]; 10 mM) [h],other results
"O=C(O)CCC(CC(=O)O)C(=O)O (stereo not given) [1,2,4-butanetricarboxylic acid]",0.33 ± 0.0058,0.277 ± 0.0026,0,0.424 ± 0.0051,0.433 ± 0.0031,0,1.526 ± 0.014,1.58 ± 0.019,0,11.425 ± 0.00233,11.31 ± 0.055,> 15,
NC(=S)Nc1cccc(C(=O)O)c1 [1-(3-Carboxyphenyl)-2-thiourea],,,,,,,,,,,,,final pH-related absorbance ([1]; 0.00075 mM): 0.246 ± 0.012; final pH-related absorbance ([1]; 0.0075 mM): 0.27 ± 0.023; final pH-related absorbance ([1]; 0.075 mM): 0.24 ± 0.011; final OD630 ([2]; 0.00075 mM): 0.489 ± 0.005; final OD630 ([2]; 0.0075 mM): 0.51 ± 0.017; final OD630 ([2]; 0.075 mM): 0.49 ± 0.01; rate of pH ([3]; 0.00075 mM): 1.92 ± 0.078; rate of pH ([3]; 0.0075 mM): 2.06 ± 0.18; rate of pH ([3]; 0.075 mM): 2.15 ± 0.048; onset of ureolytic pH increase ([4]; 0.00075 mM): 7.27 ± 0.108 h; onset of ureolytic pH increase ([4]; 0.0075 mM): 7.06 ± 0.3 h; onset of ureolytic pH increase ([4]; 0.075 mM): 7.25 ± 0.107 h
O[C@@H](CS)[C@@H](O)CS [1.4-dithiothreitol],0.381 ± 0.013,0.274 ± 0.02,0.137 ± 0.013,0.432 ± 0.079,0.306 ± 0.0084,0.264 ± 0.0063,1.81 ± 0.074,0.11 ± 0.0047,0.0642 ± 0.0044,10.2 ± 0.317,16.3 ± 0.317,16.84 ± 0.118,
O=C1CC(=O)NC(=S)N1 [2-Thiobarbituric acid],,,,,,,,,,,,,final pH-related absorbance ([1]; 0.012 mM): 0.201 ± 0.008; final pH-related absorbance ([1]; 0.118 mM): 0.194 ± 0.006; final pH-related absorbance ([1]; 1.18 mM): 0; final OD630 ([2]; 0.012 mM): 0.449 ± 0.007; final OD630 ([2]; 0.118 mM): 0.437 ± 0.008; final OD630 ([2]; 1.18 mM): 0.303 ± 0.028; rate of pH ([3]; 0.012 mM): 2.14 ± 0.06; rate of pH ([3]; 0.118 mM): 2.04 ± 0.024; rate of pH ([3]; 1.18 mM): 0; onset of ureolytic pH increase ([4]; 0.012 mM): 9.28 ± 0.0217 h; onset of ureolytic pH increase ([4]; 0.118 mM): 9.68 ± 0.4 h; onset of ureolytic pH increase ([4]; 1.18 mM): > 15 h
O=[N+]([O-])C(Br)(CO)CO [2-bromo-2-nitropropane-1.3-diol],0,0,0,0,0,0,0,0,0,> 25,> 25,> 25,
OCCS [2-mercaptoethanol],0.19 ± 0.0096,0,0,0.416 ± 0.0027,0.208 ± 0.0036,0.155 ± 0.0041,1.72 ± 0.061,0,0,10 ± 0.125,> 25,> 25,
CC1=CC(=O)C(C)=CC1=O [2.5-dimethyl-1.4-benzoquinone],,,,,,,,,,,,,final pH-related absorbance ([1]; 0.011 mM): 0.152 ± 0.0068; final pH-related absorbance ([1]; 0.107 mM): 0.116; final pH-related absorbance ([1]; 1.07 mM): 0.475 ± 0.011; final OD630 ([2]; 0.011 mM): 0.33 ± 0.011; final OD630 ([2]; 0.107 mM): 0.336; final OD630 ([2]; 1.07 mM): 0; rate of pH ([3]; 0.011 mM): 1.46 ± 0.047; rate of pH ([3]; 0.107 mM): 1.97; rate of pH ([3]; 1.07 mM): 0.535 ± 0.0079; onset of ureolytic pH increase ([4]; 0.011 mM): 9.905 ± 0.04 h; onset of ureolytic pH increase ([4]; 0.107 mM): 15.8 h; onset of ureolytic pH increase ([4]; 1.07 mM): 0 min
O=c1oc2ccccc2c(O)c1Cc1c(O)c2ccccc2oc1=O [3.3'-methylene-bis-(4-hydroxycoumarin)],,,,,,,,,,,,,final pH-related absorbance ([1]; 0.0035 mM): 0.161 ± 0.0024; final pH-related absorbance ([1]; 0.035 mM): 0.158 ± 0.0007; final pH-related absorbance ([1]; 0.35 mM): 0.16 ± 0.0029; final OD630 ([2]; 0.0035 mM): 0.424 ± 0.0021; final OD630 ([2]; 0.035 mM): 0.409 ± 0.012; final OD630 ([2]; 0.35 mM): 0.403 ± 0.0058; rate of pH ([3]; 0.0035 mM): 1.45 ± 0.019; rate of pH ([3]; 0.035 mM): 1.44 ± 0.039; rate of pH ([3]; 0.35 mM): 1.4; onset of ureolytic pH increase ([4]; 0.0035 mM): 9.383 ± 0.0183 h; onset of ureolytic pH increase ([4]; 0.035 mM): 9.87 ± 0.5 h; onset of ureolytic pH increase ([4]; 0.35 mM): 10.2 ± 0.148 h
OB(O)c1ccc(Br)cc1 [4-bromophenylboronic acid],,,,,,,,,,,,,final pH-related absorbance ([1]; 0.0017 mM): 0.12 ± 0.0018; final pH-related absorbance ([1]; 0.017 mM): 0.269 ± 0.042; final pH-related absorbance ([1]; 0.173 mM): 0; final OD630 ([2]; 0.0017 mM): 0.451 ± 0.0066; final OD630 ([2]; 0.017 mM): 0; final OD630 ([2]; 0.173 mM): 0; rate of pH ([3]; 0.0017 mM): 0.0566 ± 0.0019; rate of pH ([3]; 0.017 mM): 0.0294 ± 0.0052; rate of pH ([3]; 0.173 mM): 0; onset of ureolytic pH increase ([4]; 0.0017 mM): 12.4 ± 0.317 h; onset of ureolytic pH increase ([4]; 0.017 mM): 0 min; onset of ureolytic pH increase ([4]; 0.173 mM): > 25 h
CC(=O)NO [Acetohydroxamic acid],0.437 ± 0.044,0.057 ± 0.006,0,0.479 ± 0.016,0.356 ± 0.01,0.258 ± 0.004,1.12 ± 0.047,1.31 ± 0.054,0,8.46 ± 0.217,12.1 ± 0.153,> 15,
